# Assay: Brightness B = Φ * εmax
# Assay type: physicochemical
# Conditions: versus chelate of unsubstituted ligand (Table 7)
# Description: • “Brightness (B)” refers to the amount of radiation emitted by a chromophore or dye. In the case of one-photon absorption, B is defined as the product of the emission quantum yield (Φ) by the molar absorption coefficient (ε), i.e., B=ε·Φ, at a given excitation wavelength. In the case of two-photon absorption, B is defined as the product of the emission quantum yield (Φ) by the cross section (σ), i.e., […], at a given excitation wavelength. • “Carboxylate ester” refers to an ester of a molecule, said molecule comprising at least one carboxylic acid function (—COOH), wherein the ester is formed by esterification of at least one carboxylic acid function of the molecule. Preferred carboxylic esters are methyl esters. “Mono-ester”, “di-ester” and “tri-ester” respectively refers to esters wherein exactly one, two and three carboxylic acid functions have been esterified. • “Carboxylate salt” refers to a salt of a molecule, said molecule comprising at least one carboxylic acid function (—COOH), wherein the salt is formed by deprotonation of at least one carboxylic acid function of the molecule. Preferred carboxylic salts are potassium or sodium salts, more preferably potassium salts. […]
row,Structure (SMILES),increase in brightness of europium chelate on substitution of picolinate arms by chromophore
1,"COCCOCCOCCOc1ccc(C#Cc2cc(CN3CCN(CC(=O)[O-])Cc4cccc(n4)CN(Cc4cc(C#Cc5ccc(OCCOCCOCCOC)cc5)cc(C(=O)[O-])n4)CC3)nc(C(=O)[O-])c2)cc1.[K+].[K+].[K+] [Complex S1, potassium 6,6′-((9-(carboxylatomethyl)-3,6,9-triaza-1(2,6)-pyridinacyclodecaphane-3,6-diyl)bis(methylene)) bis(4-((4-(2-(2-(2-methoxyethoxy)ethoxy)ethoxy)phenyl)ethynyl) picolinate)]",about 4 fold
2,"COCCOCCOCCOc1ccc(C#Cc2cc(CN3CCN(CC(=O)[O-])CCN(Cc4cc(C#Cc5ccc(OCCOCCOCCOC)cc5)cc(C(=O)[O-])n4)Cc4cccc(n4)C3)nc(C(=O)[O-])c2)cc1.[K+].[K+].[K+] [Complex S4, potassium 6,6′-((6-(carboxylatomethyl)-3,6,9-triaza-1(2,6)-pyridinacyclodecaphane-3,9-diyl)bis(methylene)) bis(4-((4-(2-(2-(2-methoxyethoxy)ethoxy)ethoxy)phenyl)ethynyl) picolinate)]",about 3 fold

# Source: patent publication US20210017180A1, “PYCLEN-BASED MACROCYCLIC LIGANDS, CHELATES THEREOF AND USES THEREOF” (CENTRE NATIONAL DE LA RECHERCHE SCIENTIFIQUE, priority 2018, published 2021)
